What all share (assay type): biochemical
One assay concerns the target Recombinant human TRKA (Homo sapiens (Human), UniProt P04629). Kind of assay: In vitro activity test on TRKA kinase (HTRF kinEASE TK). As to conditions: 14.68 μM ATP, 40 min, room temperature. As to the method: (§1) Recombinant human TRKA, TRKB, TRKC proteins were purchased from Carna Biosciences. HTRF kinEASE TK kit was purchased from Cisbio Bioassays. Synergy Neo 2 of Biotek was used to read the plate.
(§2) The tested compounds were subjected to 3-fold serial dilution to reach a final concentration of 1 μM to 0.05 nM (10 concentrations), duplicates for each concentration; and the DMSO concentration in the detection reaction was 1%.
0.2 ng/μL TRKA protein kinase, 1 μM TK Substrate-biotin polypeptide substrate, 14.68 μM ATP, 1×enzymatic buffer, 5 mM MgCl2, and 1 mM DTT. The assay plate was White Proxiplate384-Plus plate (PerkinElmer), and the reaction was incubated at room temperature for 40 min, and the assay volume was 10 μL.
(§3) 10 μL of detection reagent (containing 0.125 μM SA-XL665 and 5 μL 1×TK-Antibody) was added to the plate and incubated overnight at room temperature. Synergy Neo 2 was used to read the plate.
(§4) The 665/620 Ratio was converted according to the following formula into inhibition rate (%)=(1−Ratiotest/Ratiomax)×100%. Ratiomax was the value of positive controls without tested compound, and Ratiotest was the value of each concentration of different compounds. IC50 (nM) data was obtained by 4 parameter curve fitting (see Table 1).
A general note: TR-FRET usually uses a lanthanide donor and a delayed reading to cut background.

A further assay concerns the target Recombinant human TRKB (Homo sapiens (Human), UniProt Q16620). Kind of assay: In vitro activity test on TRKB kinase (HTRF kinEASE TK). The settings on record: 4.77 μM ATP, 50 min, room temperature. How it is done:
as §1, §2
0.037 ng/μL TRKB protein kinase, 1 μM TK Substrate-biotin polypeptide substrate, 4.77 μM ATP, 1× enzymatic buffer, 5 mM MgCl2, 1 mM MnCl2 and 1 mM DTT. The assay plate was White Proxiplate 384-Plus plate (PerkinElmer), the reaction was incubated at room temperature for 50 min, and the assay volume was 10 μL.
as §3, §4

For the next assay, the target named is Recombinant human TRKC (Homo sapiens (Human), UniProt Q16288). Kind of assay: In vitro activity test on TRKC kinase (HTRF kinEASE TK). The settings on record: 25.64 μM ATP, 40 min, room temperature. As to the method:
as §1, §2
0.037 ng/μL TRKC protein kinase, 1 μM TK Substrate-biotin polypeptide substrate, 25.64 μM ATP, 1× enzymatic buffer, 5 mM MgCl2, and 1 mM DTT. The detection plate was White Proxiplate 384-Plus plate (PerkinElmer), the reaction was incubated at room temperature for 40 min, and the assay volume was 10 μL.
as §3, §4

Assay [1] deals with recombinant human TRKA (G595R) (Homo sapiens (Human), UniProt P04629, G595R). Nature of the assay: In vitro activity test on mutant TRKA (G595R) (HTRF kinEASE TK). The settings on record: 4.5 μM ATP, 30 min, room temperature; read-out: TRKA (G595R) IC 50. How it is done:
The recombinant human TRKA (G595R), TRKA (G667C) and TRKC (G623R) proteins were purchased from SignalChem. HTRF kinEASE TK kit was purchased from Cisbio Bioassays. Synergy Neo 2 of Biotek was used to read the plate.
The tested compounds were subjected to 4-fold serial dilution to reach a final concentration of 1 μM to 0.004 nM (10 concentrates), duplicates for each concentration; and the final concentration of DMSO in the reaction was 1%.
0.12 ng/μL TRKA (G595R) kinase, 1 μM TK Substrate-biotin polypeptide substrate, 4.5 μM ATP, 1× enzymatic buffer, 5 mM MgCl2, and 1 mM DTT. The assay plate was White Proxiplate384-Plus plate (PerkinElmer), and the reaction was incubated at room temperature for 30 min, and the assay volume was 10 μL.
10 μL of detection reagent (containing 0.125 μM SA-XL665 and 5 μL 1×TK-Antibody) was added to the plate and incubated overnight at room temperature, and Synergy Neo 2 was used to read the plate.
The value of 665/620 Ratio minus the value of negative control wells without enzyme, then the obtained value was converted according to the following formula into inhibition rate (%)=(1−Ratiotest/Ratiomax)×100%. Ratiomax was the value of positive controls without tested compound, and Ratiotest was the value of each concentration of different compounds. IC50 (nM) data was obtained by 4 parameter curve fitting (see Table 3).

Recombinant human TRKA, sequence (P04629 33-796): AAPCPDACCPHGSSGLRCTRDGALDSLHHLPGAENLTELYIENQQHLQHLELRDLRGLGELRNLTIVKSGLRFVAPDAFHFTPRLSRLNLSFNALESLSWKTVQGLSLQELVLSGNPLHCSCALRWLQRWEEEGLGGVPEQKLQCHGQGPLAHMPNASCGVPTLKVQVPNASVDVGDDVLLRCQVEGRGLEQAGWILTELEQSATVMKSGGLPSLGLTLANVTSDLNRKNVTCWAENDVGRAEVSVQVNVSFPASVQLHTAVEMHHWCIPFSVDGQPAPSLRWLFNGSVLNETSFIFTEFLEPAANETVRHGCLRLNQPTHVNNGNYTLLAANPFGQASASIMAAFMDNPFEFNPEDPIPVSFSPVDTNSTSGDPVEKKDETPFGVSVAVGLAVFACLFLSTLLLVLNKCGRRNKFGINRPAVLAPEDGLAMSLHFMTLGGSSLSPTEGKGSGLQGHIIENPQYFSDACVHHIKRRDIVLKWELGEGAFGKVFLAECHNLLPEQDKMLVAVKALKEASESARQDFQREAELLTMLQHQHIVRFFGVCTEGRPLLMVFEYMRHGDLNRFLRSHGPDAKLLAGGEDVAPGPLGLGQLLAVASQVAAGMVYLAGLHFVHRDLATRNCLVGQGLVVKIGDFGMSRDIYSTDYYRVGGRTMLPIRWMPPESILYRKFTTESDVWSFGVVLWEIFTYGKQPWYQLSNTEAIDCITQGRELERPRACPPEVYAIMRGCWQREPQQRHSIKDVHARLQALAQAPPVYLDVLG
Recombinant human TRKB, sequence (Q16620 32-822): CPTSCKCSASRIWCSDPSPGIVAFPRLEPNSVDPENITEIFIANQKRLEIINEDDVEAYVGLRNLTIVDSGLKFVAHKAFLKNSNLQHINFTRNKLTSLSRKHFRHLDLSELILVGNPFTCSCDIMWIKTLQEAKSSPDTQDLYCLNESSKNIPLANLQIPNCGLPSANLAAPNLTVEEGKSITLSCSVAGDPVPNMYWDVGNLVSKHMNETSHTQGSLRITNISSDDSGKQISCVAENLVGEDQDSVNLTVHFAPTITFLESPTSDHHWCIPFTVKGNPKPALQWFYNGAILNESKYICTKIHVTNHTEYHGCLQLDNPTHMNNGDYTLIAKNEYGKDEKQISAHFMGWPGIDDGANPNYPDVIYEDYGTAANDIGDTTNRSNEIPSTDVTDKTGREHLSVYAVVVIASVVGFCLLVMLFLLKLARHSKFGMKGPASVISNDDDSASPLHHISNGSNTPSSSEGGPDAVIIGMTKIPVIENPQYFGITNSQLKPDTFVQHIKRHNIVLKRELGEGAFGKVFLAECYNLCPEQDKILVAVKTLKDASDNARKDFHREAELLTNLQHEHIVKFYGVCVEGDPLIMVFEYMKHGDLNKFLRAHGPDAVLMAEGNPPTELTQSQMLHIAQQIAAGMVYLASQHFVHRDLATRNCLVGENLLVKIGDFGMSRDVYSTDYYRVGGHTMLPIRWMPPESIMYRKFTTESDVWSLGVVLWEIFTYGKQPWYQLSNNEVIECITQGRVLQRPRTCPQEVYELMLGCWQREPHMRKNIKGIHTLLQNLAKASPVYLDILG
recombinant human TRKA (G595R), sequence (P04629 33-796 G595R): as the sequence (P04629 33-796) above, with G563R counted along it
Recombinant human TRKC, sequence (Q16288 32-839): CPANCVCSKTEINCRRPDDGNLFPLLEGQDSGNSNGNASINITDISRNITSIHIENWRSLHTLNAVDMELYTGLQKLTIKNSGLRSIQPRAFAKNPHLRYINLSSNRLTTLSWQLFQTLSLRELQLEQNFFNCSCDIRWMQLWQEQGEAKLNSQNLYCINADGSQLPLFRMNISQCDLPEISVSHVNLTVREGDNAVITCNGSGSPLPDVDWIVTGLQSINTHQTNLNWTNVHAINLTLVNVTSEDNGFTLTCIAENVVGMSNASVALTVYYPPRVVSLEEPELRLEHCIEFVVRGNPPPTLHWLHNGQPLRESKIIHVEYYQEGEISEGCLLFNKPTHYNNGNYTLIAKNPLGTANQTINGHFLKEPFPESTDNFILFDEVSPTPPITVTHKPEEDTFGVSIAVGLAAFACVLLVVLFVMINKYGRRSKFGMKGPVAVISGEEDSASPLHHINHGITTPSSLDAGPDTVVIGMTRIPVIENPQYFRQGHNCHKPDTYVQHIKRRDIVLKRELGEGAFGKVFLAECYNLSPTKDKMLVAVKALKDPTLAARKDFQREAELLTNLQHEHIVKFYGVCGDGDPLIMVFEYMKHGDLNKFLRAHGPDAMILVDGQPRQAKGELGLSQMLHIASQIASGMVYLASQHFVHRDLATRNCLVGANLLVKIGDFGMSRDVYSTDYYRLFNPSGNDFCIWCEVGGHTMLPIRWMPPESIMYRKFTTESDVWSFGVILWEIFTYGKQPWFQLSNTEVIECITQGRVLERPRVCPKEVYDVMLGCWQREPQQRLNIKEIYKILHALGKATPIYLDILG

Turning to `CNC(=O)CC1(O)CCN(C(=O)Nc2cnc3[nH]nc(N4CCC[C@@H]4c4cc(F)ccc4F)c3c2)C1` (stereo partly drawn) [Example 1, N-(3-((R)-2-(2,5-difluorophenyl)pyrrolidin-1-yl)-1H-pyrazolo[3,4-b]pyridin-5-yl)-3-hydroxy-3-(2-(methylamino)-2-oxoethyl)pyrrolidine-1-carboxamide], the IC50 on Recombinant human TRKA, at Recombinant human TRKB and on Recombinant human TRKC was less than 500 nM throughout.

`O=C(Nc1cnc2[nH]nc(N3CCC[C@@H]3c3cc(F)ccc3F)c2c1)N1CC[C@H](O)C1` [Example 2, (S)—N-(3-((R)-2-(2,5-difluorophenyl)pyrrolidin-1-yl)-1H-pyrazolo[3,4-b]pyridin-5-yl)-3-hydroxypyrrolidine-1-carboxamide]: the IC50 at Recombinant human TRKA, at Recombinant human TRKB and at Recombinant human TRKC was less than 500 nM throughout.

Turning to `O=C(Nc1cnc2[nH]nc(N3CCC[C@@H]3c3cc(F)ccc3F)c2c1)c1ccc(N2CC[C@H](O)C2)nc1` [Example 3, N-(3-((R)-2-(2,5-difluorophenyl)pyrrolidin-1-yl)-1H-pyrazolo[3,4-b]pyridin-5-yl)-6-((S)-3-hydroxypyrrolidin-1-yl)nicotinamide], the IC50 at Recombinant human TRKA is less than 50 nM; at Recombinant human TRKB, less than 100 nM; on Recombinant human TRKC, less than 50 nM.

On to `NC(=O)c1cnc2[nH]nc(N3CCC[C@@H]3c3cc(F)ccc3F)c2c1` [Example 4, (R)-3-(2-(2,5-difluorophenyl)pyrrolidin-1-yl)-1H-pyrazolo[3,4-b]pyridine-5-carboxamide], for which the IC50 on Recombinant human TRKA, on Recombinant human TRKB and on Recombinant human TRKC was less than 10 nM in each case.

In the case of `O=C(NCCO)c1cnc2[nH]nc(N3CCC[C@@H]3c3cc(F)ccc3F)c2c1` [Example 6, (R)-3-(2-(2,5-difluorophenyl)pyrrolidin-1-yl)-N-(2-hydroxyethyl)-1H-pyrazolo[3,4-b]pyridine-5-carboxamide], the IC50 on Recombinant human TRKA, on Recombinant human TRKB and at Recombinant human TRKC was less than 50 nM each time.

For the compound `COCCNC(=O)c1cnc2[nH]nc(N3CCC[C@@H]3c3cc(F)ccc3F)c2c1` [Example 8, (R)-3-(2-(2,5-difluorophenyl)pyrrolidin-1-yl)-N-(2-methoxyethyl)-1H-pyrazolo[3,4-b]pyridine-5-carboxamide], the IC50 is less than 50 nM at Recombinant human TRKA, less than 10 nM on Recombinant human TRKB and less than 10 nM at Recombinant human TRKC.

`O=C(NCCCO)c1cnc2[nH]nc(N3CCC[C@@H]3c3cc(F)ccc3F)c2c1` [Example 9, (R)-3-(2-(2,5-difluorophenyl)pyrrolidin-1-yl)-N-(3-hydroxypropyl)-1H-pyrazolo[3,4-b]pyridine-5-carboxamide]: the IC50 on Recombinant human TRKA was less than 50 nM; at Recombinant human TRKB, less than 10 nM; on Recombinant human TRKC, less than 50 nM.

Take `CC(C)(O)CNC(=O)c1cnc2[nH]nc(N3CCC[C@@H]3c3cc(F)ccc3F)c2c1` [Example 10, (R)-3-(2-(2,5-difluorophenyl)pyrrolidin-1-yl)-N-(2-hydroxy-2-methylpropyl)-1H-pyrazolo[3,4-b]pyridine-5-carboxamide]: the figures for the IC50 at Recombinant human TRKA, at Recombinant human TRKB and on Recombinant human TRKC were less than 50 nM, less than 10 nM and less than 10 nM, respectively.

As for `O=C(NCCCCO)c1cnc2[nH]nc(N3CCC[C@@H]3c3cc(F)ccc3F)c2c1` [Example 12, (R)-3-(2-(2,5-difluorophenyl)pyrrolidin-1-yl)-N-(4-hydroxybutyl)-1H-pyrazolo[3,4-b]pyridine-5-carboxamide], the IC50 was less than 10 nM on Recombinant human TRKA, less than 50 nM on Recombinant human TRKB and less than 10 nM on Recombinant human TRKC.

Regarding `COC(=O)c1cnc2[nH]nc(N3C[C@@H](F)C[C@@H]3c3cc(F)ccc3F)c2c1` [Example 13, Methyl 3-((2R,4S)-2-(2,5-difluorophenyl)-4-fluoropyrrolidin-1-yl)-1H-pyrazolo[3,4-b]pyridine-5-carboxylate], the IC50 (on Recombinant human TRKA; in assay [1]; on Recombinant human TRKB; at Recombinant human TRKC) was less than 1 nM each time.

On to `O=C(N[C@H]1CC[C@@H](O)CC1)c1cnc2[nH]nc(N3CCC[C@@H]3c3cc(F)ccc3F)c2c1` [Example 14, 3-((R)-2-(2,5-difluorophenyl)pyrrolidin-1-yl)-N-((1s,4S)-4-hydroxycyclohexyl)-1H-pyrazolo[3,4-b]pyridine-5-carboxamide], for which the IC50 at Recombinant human TRKA, at Recombinant human TRKB and at Recombinant human TRKC was less than 10 nM in each case.

As for `CC1(O)CCN(c2cnc(C(=O)Nc3cnc4[nH]nc(N5C[C@@H](F)C[C@@H]5c5cc(F)ccc5F)c4c3)cn2)C1` (stereo partly drawn) [Example 16, N-(3-((2R,4S)-2-(2,5-difluorophenyl)-4-fluoropyrrolidin-1-yl)-1H-pyrazolo[3,4-b]pyridin-5-yl)-5-(3-hydroxy-3-methylpyrrolidin-1-yl)pyrazine-2-carboxamide], the IC50 on Recombinant human TRKA was less than 1 nM; at Recombinant human TRKB, less than 10 nM; on Recombinant human TRKC it was less than 10 nM.

Regarding `O=C(O)c1cnc2[nH]nc(N3C[C@@H](F)C[C@@H]3c3cc(F)ccc3F)c2c1` [Example 17, 3-((2R,4S)-2-(2,5-difluorophenyl)-4-fluoropyrrolidin-1-yl)-1H-pyrazolo[3,4-b]pyridine-5-carboxylic acid], the IC50 on Recombinant human TRKA is less than 1 nM; in assay [1], less than 10 nM; at Recombinant human TRKB, less than 1 nM; on Recombinant human TRKC it was less than 1 nM.

On to `CN(C)C(=O)c1cnc2[nH]nc(N3C[C@@H](F)C[C@@H]3c3cc(F)ccc3F)c2c1` [Example 18, 3-((2R,4S)-2-(2,5-difluorophenyl)-4-fluoropyrrolidin-1-yl)-N,N-dimethyl-1H-pyrazolo[3,4-b]pyridine-5-carboxamide], for which the IC50 on Recombinant human TRKA, on Recombinant human TRKB and on Recombinant human TRKC was less than 500 nM in each case.

As to `CC(C)OC(=O)c1cnc2[nH]nc(N3C[C@@H](F)C[C@@H]3c3cc(F)ccc3F)c2c1` [Example 19, isopropyl 3-((2R,4S)-2-(2,5-difluorophenyl)-4-fluoropyrrolidin-1-yl)-1H-pyrazolo[3,4-b]pyridine-5-carboxylate], the IC50 (at Recombinant human TRKA; in assay [1]; at Recombinant human TRKB; at Recombinant human TRKC) was less than 1 nM in each case.

Take `O=C1CC(n2cc(-c3cnc4[nH]nc(N5C[C@@H](F)C[C@@H]5c5cc(F)ccc5F)c4c3)cn2)CCN1` (stereo partly drawn) [Example 23, 4-(4-(3-((2R,4S)-2-(2,5-difluorophenyl)-4-fluoropyrrolidin-1-yl)-1H-pyrazolo[3,4-b]pyridin-5-yl)-1H-pyrazol-1-yl)piperidin-2-one]: the IC50 on Recombinant human TRKA, on Recombinant human TRKB and on Recombinant human TRKC was less than 10 nM throughout.

For the compound `COCc1nnc(-c2cnc3c(c2)c(N2C[C@@H](F)C[C@@H]2c2cc(F)ccc2F)nn3COC)o1` [Example 38, 2-(3-((2R,4S)-2-(2,5-difluorophenyl)-4-fluoropyrrolidin-1-yl)-1-(methoxymethyl)-1H-pyrazolo[3,4-b]pyridin-5-yl)-5-(methoxymethyl)-1,3,4-oxadiazole], the figures for the IC50 on Recombinant human TRKA, at Recombinant human TRKB and at Recombinant human TRKC were less than 100 nM, less than 10 nM and less than 100 nM, respectively.

For `NNC(=O)c1cnc2[nH]nc(N3C[C@@H](F)C[C@@H]3c3cc(F)ccc3F)c2c1` [Example 39, 3-((2R,4S)-2-(2,5-difluorophenyl)-4-fluoropyrrolidin-1-yl)-1H-pyrazolo[3,4-b]pyridine-5-carbohydrazide], the IC50 on Recombinant human TRKA, on Recombinant human TRKB and at Recombinant human TRKC was less than 1 nM throughout.
